# Measured values published in patent publication US12569509B2, “Method and composition for preventing and treating viral infections” (priority 2017, dated 2026).
# Entries after “also recorded” stand apart in the source; their conditions may differ.
# How the values were obtained:
# human PBMC [1] = experiment: LPS stimulated cytokine secretion in human PBMC pretreated with compounds (Phase 2); assay type: cell-based; design: TNF-α concentration in supernatant / IL-1β concentration in supernatant / IL-6 concentration in supernatant / IL-2 concentration in supernatant / IFN-g concentration in supernatant: unit of the concentration uncertain; settings: for Effect on LPS stimulated secretion of IL-1b / Effect on LPS stimulated secretion of IL-6: 200 mM (so in the source), 2 h pretreatment, 1 ng/mL LPS 8 hours; for IL-2 concentration in supernatant / TNF-α concentration in supernatant / IL-1β concentration in supernatant / IFN-g concentration in supernatant / IL-6 concentration in supernatant: 8-hour 1 ng/mL LPS stimulation; for IL-2 concentration in supernatant: LLOQ = 1.698 pg/mL; for TNF-α concentration in supernatant: LLOQ = 2.018 pg/mL; for IL-1β concentration in supernatant: LLOQ = 2.299 pg/mL; for IFN-g concentration in supernatant: LLOQ = 2.792 pg/mL; for IL-6 concentration in supernatant: LLOQ = 0.831
# Source text: Results are represented as fold-change relative to LPS treatment alone for each cytokine calculated by means from 3 separate donors.
# RPMI medium alone, RPMI supplemented with 0.2% DMSO (to mimic treatment conditions) or LPS stimulation alone were used as controls.
# Except for the two negative control conditions, all 3 donors responded to all experimental conditions tested with the secretion of TNF-α, IL-1β, and IL-6 albeit with a high degree of variability.
# human PBMC [2] = experiment: Test compound induced cytokine secretion in human PBMC without LPS, 10 or 26 hours (Phase 1); settings: 100 mM (so in the source), 10 hours, no LPS
# Description: Secretion of the cytokines TNF-α (A), IL-1β (B) and IL-6 (C) were measured in supernatant of PBMC cultured in the presence of test compounds using a Luminex platform with the Milliplex MAP Human High Sensitivity T Cell Panel Immunology Multiplex Assay. Results are represented as a mean from 3 separate donors in pg/mL.
# Whole blood was collected from 3 human donors and peripheral blood mononuclear cells (PBMC) were isolated using the Ficoll-Paque density gradient method. PBMC were then plated and left untouched for 2 hours to account for a 2 hours pretreatement period (see below for details), and incubated for 8 or 24 hours in a humidified incubator set to maintain 37° C. with 5% CO2, with different concentrations of LPS as per Table 11 in order to determine the optimal stimulation conditions to detect cytokine release. […] RPMI medium alone or supplemented with 0.1% DMSO (to mimic treatment conditions) were used as negative controls.
# At the end of the incubation period, supernatant samples were recovered and stored at −80° C. until analysis (in duplicate) using a Luminex platform with the Milliplex MAP Human High Sensitivity T Cell Panel Immunology Multiplex Assay (Cat. No. HSTCMAG-28SK) with the following selected cytokines of interest: IL-1, IL-2, IL-6, IFN-g and TNF-α. Each assay was defined by one calibration curve and 2 sets of QCs and the results were expressed as pg/mL.
compound,measurement,setting,value
"O=C(O)c1cc(O)c(O)c(O)c1 [Gallic Acid, Gallic acid]",Effect on LPS stimulated secretion of IL-1b,human PBMC [1],inhibition
same,Effect on LPS stimulated secretion of IL-6,human PBMC [1],inhibition
same,Effect on LPS stimulated secretion of IL-1b,human PBMC [1]; listed as gallic acid,decrease; also recorded: inhibits
same,Effect on LPS stimulated secretion of IL-6,human PBMC [1]; listed as gallic acid,decrease; also recorded: inhibits
same,IL-2 concentration in supernatant,"human PBMC [1]; Donor 1, 10 (unit uncertain)",<LLOQ
same,TNF-α concentration in supernatant,"human PBMC [1]; Donor 1, 10 (unit uncertain)",2295.37 pg/mL
same,IL-1β concentration in supernatant,"human PBMC [1]; Donor 1, 10 (unit uncertain)",4009.57 pg/mL
same,IFN-g concentration in supernatant,"human PBMC [1]; Donor 1, 10 (unit uncertain)",<LLOQ
same,IL-6 concentration in supernatant,"human PBMC [1]; Donor 1, 10 (unit uncertain)",1244.44 pg/mL
same,IL-2 concentration in supernatant,"human PBMC [1]; Donor 1, 100 (unit uncertain)",<LLOQ
same,TNF-α concentration in supernatant,"human PBMC [1]; Donor 1, 100 (unit uncertain)",2673.83 pg/mL
same,IL-1β concentration in supernatant,"human PBMC [1]; Donor 1, 100 (unit uncertain)",2029.63 pg/mL
same,IFN-g concentration in supernatant,"human PBMC [1]; Donor 1, 100 (unit uncertain)",<LLOQ
same,IL-6 concentration in supernatant,"human PBMC [1]; Donor 1, 100 (unit uncertain)",776.23 pg/mL
same,IL-2 concentration in supernatant,"human PBMC [1]; Donor 1, 200 (unit uncertain)",<LLOQ
same,TNF-α concentration in supernatant,"human PBMC [1]; Donor 1, 200 (unit uncertain)",1973.87 pg/mL
same,IL-1β concentration in supernatant,"human PBMC [1]; Donor 1, 200 (unit uncertain)",905.16 pg/mL
same,IFN-g concentration in supernatant,"human PBMC [1]; Donor 1, 200 (unit uncertain)",<LLOQ
same,IL-6 concentration in supernatant,"human PBMC [1]; Donor 1, 200 (unit uncertain)",466.09 pg/mL
same,IL-2 concentration in supernatant,"human PBMC [1]; Donor 2, 10 (unit uncertain)",<LLOQ
same,TNF-α concentration in supernatant,"human PBMC [1]; Donor 2, 10 (unit uncertain)",924.89 pg/mL
same,IL-1β concentration in supernatant,"human PBMC [1]; Donor 2, 10 (unit uncertain)",2259.03 pg/mL
same,IFN-g concentration in supernatant,"human PBMC [1]; Donor 2, 10 (unit uncertain)",<LLOQ
same,IL-6 concentration in supernatant,"human PBMC [1]; Donor 2, 10 (unit uncertain)",547.26 pg/mL
same,IL-2 concentration in supernatant,"human PBMC [1]; Donor 2, 100 (unit uncertain)",<LLOQ
same,TNF-α concentration in supernatant,"human PBMC [1]; Donor 2, 100 (unit uncertain)",2001.65 pg/mL
same,IL-1β concentration in supernatant,"human PBMC [1]; Donor 2, 100 (unit uncertain)",1867.42 pg/mL
same,IFN-g concentration in supernatant,"human PBMC [1]; Donor 2, 100 (unit uncertain)",<LLOQ
same,IL-6 concentration in supernatant,"human PBMC [1]; Donor 2, 100 (unit uncertain)",694.6 pg/mL
same,IL-2 concentration in supernatant,"human PBMC [1]; Donor 2, 200 (unit uncertain)",<LLOQ
same,TNF-α concentration in supernatant,"human PBMC [1]; Donor 2, 200 (unit uncertain)",1867.55 pg/mL
same,IL-1β concentration in supernatant,"human PBMC [1]; Donor 2, 200 (unit uncertain)",858.76 pg/mL
same,IFN-g concentration in supernatant,"human PBMC [1]; Donor 2, 200 (unit uncertain)",<LLOQ
same,IL-6 concentration in supernatant,"human PBMC [1]; Donor 2, 200 (unit uncertain)",426.3 pg/mL
same,IL-2 concentration in supernatant,"human PBMC [1]; Donor 3, 10 (unit uncertain)",<LLOQ
same,TNF-α concentration in supernatant,"human PBMC [1]; Donor 3, 10 (unit uncertain)",4990.73 pg/mL
same,IL-1β concentration in supernatant,"human PBMC [1]; Donor 3, 10 (unit uncertain)",4065.13 pg/mL
same,IFN-g concentration in supernatant,"human PBMC [1]; Donor 3, 10 (unit uncertain)",<LLOQ
same,IL-6 concentration in supernatant,"human PBMC [1]; Donor 3, 10 (unit uncertain)",547.26 pg/mL
same,IL-2 concentration in supernatant,"human PBMC [1]; Donor 3, 100 (unit uncertain)",<LLOQ
same,TNF-α concentration in supernatant,"human PBMC [1]; Donor 3, 100 (unit uncertain)",3070.21 pg/mL
same,IL-1β concentration in supernatant,"human PBMC [1]; Donor 3, 100 (unit uncertain)",1788.4 pg/mL
same,IFN-g concentration in supernatant,"human PBMC [1]; Donor 3, 100 (unit uncertain)",<LLOQ
same,IL-6 concentration in supernatant,"human PBMC [1]; Donor 3, 100 (unit uncertain)",694.6 pg/mL
same,IL-2 concentration in supernatant,"human PBMC [1]; Donor 3, 200 (unit uncertain)",<LLOQ
same,TNF-α concentration in supernatant,"human PBMC [1]; Donor 3, 200 (unit uncertain)",4121.3 pg/mL
same,IL-1β concentration in supernatant,"human PBMC [1]; Donor 3, 200 (unit uncertain)",1478.91 pg/mL
same,IFN-g concentration in supernatant,"human PBMC [1]; Donor 3, 200 (unit uncertain)",<LLOQ
same,IL-6 concentration in supernatant,"human PBMC [1]; Donor 3, 200 (unit uncertain)",426.3 pg/mL
same,"TNF-α, IL-1β, and/or IL-6 production, compound alone",human PBMC [2],minor increases
